What was measured:
Assay in all cases: normalised viability (% of control), CellTiter-Blue; higher = more viable cells (about 100 = DMSO control)
Details in all cases: incubation time: 72 h
HCC1143 = system: HCC1143
Outline: (§1)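 After 72 h on compound-loaded 384-well plates, breast cancer cell lines received 2.5 µl CellTiter-Blue reagent for 2 h at 37 °C. Fluorescence at 560/590 nm was scaled per plate so that vehicle was 100 and a positive kill control was 0. The value stands for normalised viability at a single listed concentration of the series.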

CAL-120 = system: CAL-120
Outline: as §1

DU-4475 = system: DU-4475
Outline: as §1

BT-474 = system: BT-474
Outline: as §1

Hs578T = system: Hs578T
Outline: as §1

BT-549 = system: BT-549
Outline: as §1

CAL-51 = system: CAL-51
Outline: as §1

CAL-85-1 = system: CAL-85-1
Outline: as §1

MDA-MB-468 = system: MDA-MB-468
Outline: as §1

HCC1599 = system: HCC1599
Outline: as §1

MDA-MB-231 = system: MDA-MB-231
Outline: as §1

CAL-148 = system: CAL-148
Outline: as §1

Cn1c(Nc2ccc(C(F)(F)F)cc2)nc2cc(Oc3ccnc(-c4ncc(C(F)(F)F)[nH]4)c3)ccc21 [RAF265]
normalised viability [%]
Details	0.3 nM	1 nM	3 nM	10 nM	100 nM	1000 nM
BT-474	–	118	–	–	107	96.4
BT-549	–	87.3	–	–	80.8	78.5
CAL-51	91.4	–	94.2	99.1	–	–
CAL-85-1	87.4	–	83.3	89.8	–	–
CAL-120	–	88.5	–	–	64.5	51.3
CAL-148	89.4	–	87.1	89.2	–	–
DU-4475	102	–	95.6	116	–	–
HCC1143	–	90.1	–	–	78	72.5
HCC1599	–	104	–	–	106	106
Hs578T	–	97.8	–	–	90.9	78.3
MDA-MB-231	–	110	–	–	86.1	53.8
MDA-MB-468	–	110	–	–	94.2	80.1

COc1cc([C@@H]2c3cc4c(cc3[C@@H](O[C@@H]3O[C@@H]5CO[C@@H](C)O[C@H]5[C@H](O)[C@H]3O)[C@H]3COC(=O)[C@H]23)OCO4)cc(OC)c1O [Etoposide]
normalised viability [%]
Details	3 nM	10 nM	30 nM	100 nM	1000 nM	10000 nM
BT-474	–	116	–	–	96.4	87.3
BT-549	–	84.9	–	–	56	46.7
CAL-51	98.6	–	85.8	77.3	–	–
CAL-85-1	99.9	–	93.9	102	–	–
CAL-120	–	92.5	–	–	73.6	59.1
CAL-148	88.6	–	81	85.7	–	–
DU-4475	108	–	72.3	61.3	–	–
HCC1143	–	85.7	–	–	66.6	47.3
HCC1599	–	99.1	–	–	94	72.3
Hs578T	–	94.6	–	–	77.1	52.4
MDA-MB-231	–	121	–	–	82.7	66.1
MDA-MB-468	–	107	–	–	73	35.9

CN(N=O)C(=O)N[C@@H](C=O)[C@@H](O)[C@H](O)[C@H](O)CO [Streptozocin]
normalised viability [%]
Details	3 nM	10 nM	30 nM	100 nM	1000 nM	10000 nM
BT-474	–	125	–	–	98.6	135
BT-549	–	93	–	–	103	83.7
CAL-51	115	–	112	107	–	–
CAL-85-1	95.7	–	92.1	95.4	–	–
CAL-120	–	106	–	–	101	113
CAL-148	98.6	–	97.3	99.3	–	–
DU-4475	101	–	96.5	103	–	–
HCC1143	–	87.5	–	–	97.4	92.5
HCC1599	–	104	–	–	85.9	113
Hs578T	–	110	–	–	103	101
MDA-MB-231	–	101	–	–	138	110
MDA-MB-468	–	107	–	–	105	113

Cc1ccc(C(=O)N(CCCN)[C@@H](c2oc3cc(Cl)ccc3c(=O)c2Cc2ccccc2)C(C)C)cc1
normalised viability [%]
Details	0.3 nM	1 nM	3 nM	10 nM	100 nM	1000 nM
BT-474	–	117	–	–	27.5	28.7
BT-549	–	87.3	–	–	25.1	34.8
CAL-51	106	–	101	38.6	–	–
CAL-85-1	92.9	–	90.1	33	–	–
CAL-120	–	53	–	–	27.8	26.7
CAL-148	93	–	106	16.1	–	–
DU-4475	91.4	–	108	52.9	–	–
HCC1143	–	83.7	–	–	43.2	37.5
HCC1599	–	97.2	–	–	94.1	81.7
Hs578T	–	102	–	–	13.6	13.6
MDA-MB-231	–	37.1	–	–	25.8	24.2
MDA-MB-468	–	88.4	–	–	26.5	36.3

CCC1=C[C@@H]2CN(C1)Cc1c([nH]c3ccccc13)[C@@](C(=O)OC)(c1cc3c(cc1OC)N(C)[C@H]1[C@@](O)(C(=O)OC)[C@H](OC(C)=O)[C@]4(CC)C=CCN5CC[C@]31[C@@H]54)C2 [Vinorelbine]
normalised viability [%]
Details	3 nM	10 nM	30 nM	100 nM	1000 nM	10000 nM
BT-474	–	108	–	–	44.4	58.1
BT-549	–	94.9	–	–	15.8	11.4
CAL-51	110	–	91.7	58.1	–	–
CAL-85-1	94.2	–	60.3	34.5	–	–
CAL-120	–	84.1	–	–	24.3	25.4
CAL-148	106	–	91.4	18.7	–	–
DU-4475	96.7	–	91.3	79.4	–	–
HCC1143	–	93.9	–	–	45.8	38.7
HCC1599	–	84.2	–	–	44.4	53.5
Hs578T	–	93.7	–	–	16.1	15.9
MDA-MB-231	–	109	–	–	16.7	12.7
MDA-MB-468	–	104	–	–	53.6	33.8

Cn1c(CCCC(=O)O)nc2cc(N(CCCl)CCCl)ccc21 [Bendamustine]
normalised viability [%]
Details	3 nM	10 nM	30 nM	100 nM	1000 nM	10000 nM
BT-474	–	127	–	–	120	105
BT-549	–	107	–	–	101	101
CAL-51	111	–	105	111	–	–
CAL-85-1	91.2	–	94.8	100	–	–
CAL-120	–	89.5	–	–	86.7	93.4
CAL-148	99.8	–	112	106	–	–
DU-4475	90	–	102	101	–	–
HCC1143	–	107	–	–	104	97.8
HCC1599	–	115	–	–	105	114
Hs578T	–	110	–	–	127	97.7
MDA-MB-231	–	102	–	–	96.1	91
MDA-MB-468	–	107	–	–	95	82.3

COc1cc2nccc(Oc3ccc(NC(=O)C4(C(=O)Nc5ccc(F)cc5)CC4)cc3)c2cc1OC [Cabozantinib]
normalised viability [%]
Details	0.3 nM	1 nM	3 nM	10 nM	100 nM	1000 nM
BT-474	–	125	–	–	119	127
BT-549	–	96.3	–	–	108	101
CAL-51	109	–	106	97.8	–	–
CAL-85-1	89.2	–	87.5	88.9	–	–
CAL-120	–	85.5	–	–	77.8	86.5
CAL-148	94.5	–	103	94.2	–	–
DU-4475	90.4	–	78	88.4	–	–
HCC1143	–	78.9	–	–	87.9	85.5
HCC1599	–	91.8	–	–	88.6	74.6
Hs578T	–	128	–	–	102	111
MDA-MB-231	–	86.4	–	–	94.1	87.7
MDA-MB-468	–	110	–	–	106	101

From the supplement of paper PMC4862054
